Reference: PubChem BioAssay AID365 (MTDP, 2006)
Activity calls are given as the source filed them. The rule behind the calls is not given here.

Biological target: Ribonuclease HI (Escherichia coli (strain K12)) (UniProt P0A7Y4)
Experiment: inhibition of bacterial ribonuclease H activity – biochemical, FRET RNA/DNA duplex cleavage, dose response (AID 365)
Settings: E. coli RNase H, FRET RNA/DNA cleavage fluorescence

Ribonuclease HI (Escherichia coli (strain K12)), sequence (P0A7Y4 whole entry, looked up): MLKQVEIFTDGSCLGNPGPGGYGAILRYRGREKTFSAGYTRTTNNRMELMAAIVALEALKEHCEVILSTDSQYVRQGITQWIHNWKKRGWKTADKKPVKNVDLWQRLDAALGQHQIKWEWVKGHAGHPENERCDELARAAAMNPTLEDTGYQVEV

O=C(NC(=S)Nc1cc(-c2nc3ccccc3s2)ccc1Cl)c1ccc(F)cc1
IC50: 6 µM

O=C1NC(=S)N(c2ccccc2F)C(=O)C1=Cc1ccco1
IC50: 1.1 µM

Cc1c(Cl)ccc2c1NC(C(=O)O)C1CC=CC21 (centres undefined)
IC50: 6.8 µM

Cc1cc(I)c2c(c1)C1C=CCC1C(C(=O)O)N2 (centres undefined)
IC50: inactive

C[C@@H]1Oc2c3c(c4c(-c5ccccc5)cc(=O)oc4c2C(=O)[C@H]1C)OC(C)(C)C=C3
IC50: 4.2 µM

O=c1[nH]c2[nH]c(=S)[nH]c(=S)c2[nH]1
IC50: > 100 µM (inactive)

C=Cc1c(C)c2cc3[nH]c(cc4nc(cc5nc(cc1[nH]2)C(C)=C5CCC(=O)O)C(CCC(=O)O)=C4C)c(C)c3C=C
IC50: inactive

CC1=C(C)CC(C(=O)Nc2ccc(N3C(=O)c4ccccc4C3=O)cc2)C(C(=O)O)C1 (centres undefined)
IC50: > 100 µM (inactive)

CC(=O)C1=C(O)[C@@]2(O)C(=O)c3c(c(C)c4ccc(C)c(O)c4c3O)C[C@H]2[C@@H](N)C1=O
IC50: 9 µM

Cc1ccccc1-n1c(O)c(C=C2C=CC=N2)c(=O)[nH]c1=S
IC50: 8 µM

O=C(CSc1nc2ccccc2s1)c1sc2sc3ccccc3[n+]2c1[O-]
IC50: 0.6 µM

Cc1ccc(C)n1-c1ccc(Br)cc1C(=O)O
IC50: inactive

O=C1C=CC2=C3c4cc(O)c(O)cc4CC3(O)COC2=C1O (centres undefined)
IC50: inactive

C[N+](C)=c1ccc2nc3c(cc(Nc4ccccc4)c4ccccc43)oc-2c1
IC50: 2.8 µM

Cc1cc(C)c2c(=O)[nH]c(SCC(=O)c3ccc(O)c(O)c3)nc2n1
IC50: 18 µM

C=CCN1C(=O)/C(=C\c2ccc([N+](=O)[O-])o2)C(=O)NC1=S
IC50: 72 µM

Nc1ccc(N=Nc2ccc(-c3ccc(O)cc3)cc2)c2ccc(S(=O)(=O)O)cc12
IC50: inactive

O=C1C=CC(=O)C(c2cc(Cl)ccc2Cl)=C1
IC50: 9.2 µM

O=C1NC(=S)S/C1=C/c1cccc(OCc2ccc(Cl)c(Cl)c2)c1
IC50: 4.4 µM

S=C(Nc1ccc2c(c1)Cc1ccccc1-2)Nc1ccc2c(c1)Cc1ccccc1-2
IC50: 4 µM

C[C@@H]1[C@H](O)c2c(c3c(c4c(-c5ccccc5)cc(=O)oc24)OC(C)(C)C=C3)O[C@@H]1C
IC50: 8 µM

Oc1cc(O)c2c(c1)OC(c1ccc(O)c(O)c1)C(OC1(c3cc(O)c(O)c(O)c3)Oc3cc(O)cc(O)c3C(O)C1O)C2 (centres undefined)
IC50: > 100 µM (inactive)

C[C@]12Cc3cnc(-c4ccccc4)nc3C[C@@H]1CC[C@@H]1[C@@H]2CC[C@@]2(C)[C@H]1CC[C@]2(C)O
IC50: inactive

Cc1cccc(NCC(=O)N/N=C\c2c(Br)cc(Br)c(O)c2Br)c1
IC50: inactive

Oc1c(Br)cc(/C=N/Nc2nnc3c(n2)[nH]c2ccccc23)c(Br)c1O
IC50: 4.3 µM

Cc1ccc(S(=O)(=O)/N=C2\C=CC(=O)C=C2Cl)cc1
IC50: inactive

CC(C)c1cccc(O)c(=O)c1
IC50: > 100 µM (inactive)

Ic1ccc2c(c1)N(c1ccccc1)c1cc(N=c3ccc4nc5ccc(I)cc5n(-c5ccccc5)c-4c3)ccc1N2
IC50: 4.1 µM

Cc1ccc(-c2cc(C(=O)Nc3sc(C(=O)OC(C)C)c(C)c3C(N)=O)c3ccccc3n2)s1
IC50: 1.8 µM

C[C@]12CC[C@H]3[C@@H](CCC4=CC(=O)CC[C@@]43C)[C@@H]1CC[C@@H]2C(=O)COS(=O)(=O)c1ccc(Br)cc1
IC50: inactive

CCOc1ccc(NC(=O)c2c(NC(=O)c3ccco3)sc3c2CCCCC3)cc1
IC50: inactive

COc1ccccc1N=C(NOCc1ccc(Cl)cc1Cl)c1nonc1N
IC50: inactive

O=C1c2ccccc2C(=O)c2c1cc(O)c(O)c2O
IC50: inactive

Cc1c(O)c(Br)c(C)c(O)c1Br (tested in a mixture with another compound)
IC50: > 100 µM (inactive)

O=C1c2ccccc2C(=O)N1c1ccc(-c2nc3ccc(N4C(=O)c5ccccc5C4=O)cc3[nH]2)cc1
IC50: 5 µM

C=C1C(=O)O[C@@H]2/C=C(\C)CC/C=C(\C(=O)O)CC/C=C(\C)CC[C@H]12
IC50: > 100 µM (inactive)

Cc1cc(-c2ccco2)c(C#N)c(SCC(=O)c2ccc(O)c(O)c2)n1
IC50: 1.1 µM

COc1ccc2c(c1)N(C(=O)CN1C(=O)c3ccccc3C1=O)C(C)(C)c1ssc(=S)c1-2
IC50: inactive

CCOc1ccc(NC(=O)c2c(NC(=O)c3ccccc3)sc3c2CCCCC3)cc1
IC50: 0.33 µM

O=S(=O)(O)c1cc(N=[N+]([O-])c2cc(S(=O)(=O)O)c3ccccc3c2)cc2ccccc12
IC50: 0.7 µM

CCOC(=O)Oc1c(OC)cc(C(=O)O[C@@H]2C[C@@H]3CN4CCc5c([nH]c6cc(OC)ccc56)[C@H]4C[C@@H]3[C@H](C(=O)OC)[C@H]2OC)cc1OC
IC50: > 100 µM (inactive)

O=c1c(O)c(-c2cc(O)c(O)c(O)c2)oc2cc(O)cc(O)c12
IC50: inactive

O=C(O)C1CCCCC1c1c2ccc(=O)c(O)c-2oc2c(O)c(O)ccc12 (centres undefined)
IC50: 2 µM

Cc1sc(NC(=O)C2CC3CCC2C3)c(C(N)=O)c1C (centres undefined)
IC50: inactive

O=C1O/C(=C(/C(=O)O)c2ccc(O)cc2)C(O)=C1c1cc2c3c(c(O)cc(C4=C(O)/C(=C(\C(=O)O)c5ccc(O)cc5)OC4=O)c3c1)OC2=O
IC50: inactive

CN1CC(O)C2=CC(=O)C(=O)C=C21 (centres undefined)
IC50: > 100 µM (inactive)

COc1ccc(NC(=O)c2c(N)sc(-c3ccccc3)c2C)cc1
IC50: 2 µM

Cc1ccc(C)n1-c1ccc(O)c(C(=O)O)c1
IC50: > 100 µM (inactive)

O=C1c2ccccc2C(=O)c2c(O)c(O)cc(O)c21
IC50: inactive

O=C1C(Cl)=C(NC(=O)c2ccccc2)C(=O)C(Cl)=C1NC(=O)c1ccccc1
IC50: > 100 µM (inactive)

O=C(O)/C=C/c1c2ccc(=O)c(O)c-2oc2c(O)c(O)ccc12
IC50: 2 µM

Cc1cccc(NC(=O)c2c(NC(=O)c3ccc([N+](=O)[O-])cc3)sc3c2CCCC3)c1
IC50: 0.28 µM

C[C@H]1[C@H](O)c2c(c3c(c4c(-c5ccccc5)cc(=O)oc24)OC(C)(C)C=C3)O[C@@H]1C
IC50: > 100 µM (inactive)

Cc1sc(NC(=O)c2cccc([N+](=O)[O-])c2)c(C(N)=O)c1C
IC50: 0.7 µM

C=CC(C)(C)C12CC3C(=O)N/C(=C\c4cnc[nH]4)C(=O)N3C1Nc1ccccc12 (centres undefined)
IC50: > 100 µM (inactive)

Cc1ccc(-c2c(C#N)c(SCC(=O)c3ccc(O)c(O)c3)nc3c2CCCC3)o1
IC50: 0.2 µM

O=C1c2cc([N+](=O)[O-])ccc2-c2ccc3c4ccc5c6c(ccc(c7ccc1c2c73)c64)C(=O)c1cc([N+](=O)[O-])ccc1-5
IC50: 1.8 µM

CCc1c(O)c2c(c(O)c1C(C)=O)C(=O)c1c(cc(O)c(C(=O)O)c1C(=O)O)C2=O
IC50: > 100 µM (inactive)

COc1ccccc1NC(=O)c1c(NC(=O)Cc2ccccc2)sc2c1CCCCC2
IC50: 0.26 µM

NCC[Se][Se]CCN
IC50: > 100 µM (inactive)

Cc1ccc(C=C2C(=O)NC(=S)N(c3ccccc3Cl)C2=O)o1
IC50: inactive

Oc1cc(O)c2cc(O)c(-c3ccc(O)c(O)c3)[o+]c2c1
IC50: 0.4 µM

Cc1cc(Br)ccc1N1C(=O)/C(=C/c2ccco2)C(=O)NC1=S
IC50: 0.2 µM

COc1cc(C)cc2c(-c3c(O)cc(O)c4c3C[C@@H](C)N[C@@H]4C)cc(-c3cc(-c4c(O)cc(O)c5c4C[C@@H](C)N[C@@H]5C)c4cc(C)cc(OC)c4c3O)c(O)c12
IC50: 1.2 µM

C=CC1=C(C)C2=NC1=CC1=NC(=CC3=C(C)C4=C(O)C(C(=O)OC)C(=C5NC(=C2)C(C)C5CCC(=O)OC/C=C(\C)CCCC(C)CCCC(C)CCCC(C)C)C4=N3)C(CC)=C1C (centres undefined)
IC50: > 100 µM (inactive)

Oc1cc(CN2COc3ccccc32)c(O)cc1CNC1CCCCC1
IC50: > 100 µM (inactive)

COC(=O)c1cc2c3c(ccc2[nH]1)N(C(=O)c1cc2c4c(ccc2[nH]1)N(C(=O)c1cc2c5c(ccc2[nH]1)N(C(N)=O)CC5)CC4)CC3
IC50: inactive

COc1ccc(C2COc3cc(O)c(O)cc3C2)cc1 (centres undefined)
IC50: inactive

COc1ccc2oc(=O)c(-c3csc(Nc4ccc(Br)cc4)n3)cc2c1
IC50: 2.8 µM

O=C1NC(=S)N(c2ccc(Cl)cc2)C(=O)/C1=C/c1ccco1
IC50: inactive

Cc1cc(Cl)ccc1OCC(=O)Nc1sc(C)c(C)c1C(N)=O
IC50: 1.2 µM

O=C1NN(c2ccc(I)cc2)C(=O)/C1=C\c1ccc(O)c(O)c1
IC50: 3.5 µM

Cc1nn(CC(=O)Nc2sc(C)c(C)c2C(N)=O)c(C)c1[N+](=O)[O-]
IC50: 8.2 µM

COc1ccc(N2C(=O)/C(=C/c3ccc(I)o3)C(=O)NC2=S)cc1
IC50: 3 µM

COc1ccc(-c2c(C#N)c(N)nc(SCC(=O)c3ccc(O)c(O)c3)c2C#N)cc1
IC50: 0.6 µM

O=C1NC(=O)/C(=C/c2ccc(-c3ccc(O)c(C(=O)O)c3)o2)S1
IC50: 1.3 µM

NC(=O)c1c(N)sc2c1CCCCC2
IC50: > 100 µM (inactive)

O=C1NC(=S)N(c2ccccc2F)C(=O)/C1=C/c1ccc(I)o1
IC50: 7.3 µM

N#Cc1c(NC(=O)C(F)(F)F)sc2c3c(=O)c4ccccc4c(=O)c=3oc3ccccc3c12
IC50: inactive

Cc1ccc(NC(=O)c2c(NC(=O)C(F)(F)F)sc(-c3ccccc3)c2C)c(C)c1
IC50: 8.1 µM

Cc1sc(NC(=O)c2ccco2)c(C(N)=O)c1C
IC50: inactive

CCN1C(=O)/C(=C/c2ccoc2)C(=O)NC1=S
IC50: inactive

Cc1onc(-c2ccccc2)c1C(=O)Nc1sc(C)c(C)c1C(N)=O
IC50: inactive

CC(C)=CCC1=C(O)[C@@](O)(CC=C(C)C)C(=O)C(C(=O)CC(C)C)=C1O
IC50: inactive

CCOc1cccc(N2C(=O)/C(=C/c3cn(CC(=O)OC)c4ccccc34)C(=O)NC2=S)c1
IC50: 6.2 µM

O=[N+]([O-])c1ccc2c(N=Nc3ccc4ccccc4c3O)c(O)cc(S(=O)(=O)O)c2c1
IC50: 3 µM

Cc1ccc(C)n1-c1ccc(SCC(=O)O)cc1
IC50: > 100 µM (inactive)

COc1ccc(/C=C\C(=O)c2c(-c3ccccc3)c3cc(C)ccc3[nH]c2=O)c(OC)c1
IC50: 9 µM

NC(=O)c1c(NC(=O)COc2ccccc2)sc2c1CCCCC2
IC50: 2 µM

Cc1sc(NC(=O)c2ccc3c(c2)OCO3)c(C(N)=O)c1C
IC50: 4 µM

O=C1/C(=C/c2ccc(O)c(O)c2)SC(=S)N1C1CCCCC1
IC50: 3 µM

CC1=C(CCC(=O)O)c2cc3nc(cc4[nH]c(cc5[nH]c(cc1n2)c(C)c5C(C)O)c(C)c4C(C)O)C(C)=C3CCC(=O)O (centres undefined)
IC50: > 100 µM (inactive)

COc1cccc(-c2nc3cc(NC(=O)/C=C\c4ccccc4)ccc3o2)c1
IC50: 3.7 µM

Cc1ccc(S(=O)(=O)/N=C2\C=C(Sc3ncn[nH]3)C(=O)c3ccccc32)cc1
IC50: inactive
